1 molecule from ChEMBL document CHEMBL2375354, “Total synthesis of the marine cyclic depsipeptide viequeamide a” (J Nat Prod, 2013) can be followed below.

Data set [1] in a line: Cytotoxicity against human H460 cells by SRB assay. The format is functional, cell-based. The note with it: NCI-H460. On the technique in general: In SRB staining, fixed cells bind dye roughly in proportion to their protein.
Data set [2] in a line: Stability of the compound in DMSO by HPLC analysis. The format is physicochemical.
Data set [3] in a line: Cytotoxicity against human KB/VCR cells by SRB assay. The format is functional, cell-based.
In a further data set the test system is KB. The experiment in a line: Cytotoxicity against human KB cells by SRB assay. The format is functional, cell-based.
Another data set has as its system A549. In words: Cytotoxicity against human A549 cells by SRB assay. The format is functional, cell-based.

As a reminder, the pIC50 is the IC50 on a negative log10 scale, so that one unit is a factor of ten. Low readings indicate a high IC50, high ones a low IC50.

Each structure is given as a SMILES string. pIC50: −log10 of the molar value. Numbered stars: 1 amine (or outer) side, 2 acyl side, 3 side chain; on linkers, the order of the positions; unused ones are H or OH. Bridge positions count the residues as written; N and C are the ends. Square brackets hold non-standard residues; d marks the D form. Peptide text beside a SMILES is read from it. X1 = C#CCCC[C@H](O[*:2])C(C)(C)C(=O)[*:1]; Hmp(2R,3S) = CC[C@H](C)[C@@H](O)C(=O)O; NMeV = CN[C@H](C(=O)O)C(C)C

Regarding `C#CCCC[C@@H]1OC(=O)[C@H]([C@@H](C)O)NC(=O)[C@H](C(C)C)N(C)C(=O)[C@@H]2CCCN2C(=O)[C@@H]([C@@H](C)CC)OC(=O)[C@H](C(C)C)N(C)C(=O)[C@H](C(C)C)NC(=O)C1(C)C` [VIEQUEAMIDE A] (V[NMeV][Hmp(2R,3S)]P[NMeV]T; linker N-C via X1), the pIC50 (in data set [1]; in data set [3]; with KB; in the data set with A549) was above 4.00 each time. Moreover, in data set [2], the Stability entry is given as “Unstable”.
